The values below come from the METLIN SMRT retention time set (Domingo-Almenara et al. 2019).

This data set in a line: gradient 5% acetonitrile 3 min, to 50% in 2 min, to 85% in 15 min, held 3 min, 100 µL/min. The note with it: column: Zorbax Extend-C18 2.1 x 50 mm; eluents: water / acetonitrile, 0.1% formic acid. The method in brief: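 Retention times of pure standards were taken from adduct peaks that were selected by computer and manually inspected. Over 3 months, mixtures of ~100 molecules were run by HPLC–quadrupole time-of-flight mass spectrometry in positive and negative ionization mode. The Zorbax Extend-C18 column (2.1 × 50 mm, 1.8 μm) ran at 100 μL/min in water and acetonitrile, each containing 0.1% formic acid, with 40 μL dead volume and 900 μL dwell volume.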
`CCCn1cc(CCNS(=O)(=O)c2c(C)noc2C)c2cccnc21`: the RP-LC retention time is 779 s.
The result for `O=C(C1CCN(c2cncnc2N2CCOCC2)CC1)N1CCC(Cc2ccccc2)CC1` reads 700 s; that for `C=CCn1ccc2c(OCC(=O)Nc3ccc4c(c3)OCCO4)cccc2c1=O`, 818 s; that for `O=C(NCC1CCCO1)c1ccccc1NC(=O)C1CCN(C(=O)c2ccc(F)cc2)CC1` (stereo not given), 762 s.
For `O=C(C1CCOCC1)N1CCC(Oc2nccnc2N2CCOCC2)C1` (stereo not given), the RP-LC retention time amounted to 598 s.
In turn, `CSc1nnc(-c2nn(C)c3c2CN(C(=O)c2ccc(C)c(C)c2)CC3)n1C` yielded an RP-LC retention time of 770 s.
Molecule `Cc1ccc(-c2ccc(N3CCN(c4ccccn4)CC3)nn2)cc1S(=O)(=O)N1CCCCCC1` returned an RP-LC retention time of 716 s.
For the molecule `COC(=O)N1CCc2ccc(F)cc2C1C(=O)Nc1cccc2nsnc12` (stereo not given), the RP-LC retention time was found to be 754 s.
Take `CN1CCCN(C(=O)CN2CCCc3nc(C4CC4)ncc3C2=O)CC1`: the RP-LC retention time is 570 s.
The molecule `CCN(CC)CCCNC(=O)c1ccc2c(c1)N(C)C(=O)C1CCCCN21` (stereo not given) yielded an RP-LC retention time of 608 s.
Turning to `CC(C)c1ccc(CNC(=O)c2ccc3c(c2)N(C)C2CCCCN2C3=O)cc1` (stereo not given), the RP-LC retention time was 976 s.
Take `O=C(COc1cccc(Cl)c1)N1CCCN(C2CCN(CC3CC3)C2=O)CC1` (stereo not given): the RP-LC retention time came to 574 s.
The result for `CCNS(=O)(=O)c1cccnc1Nc1cccc(C)c1` reads 998 s; that for `COc1ccc(N2CCN(S(=O)(=O)c3cc(-c4cnn5c(C)cc(C)nc45)ccc3C)CC2)cc1`, 1170 s.
Molecule `CCOc1ccc(NC(=O)Cn2nc3cc(C)nc(N4CCCC4)n3c2=O)cc1` registered an RP-LC retention time of 765 s.
With `COCc1cc(=O)n(Cc2ncc(C)c(OC)c2C)c(N2CCCC2)n1`, the RP-LC retention time turned out to be 608 s.
Then `CCn1cc(CNC(=O)c2cc(-c3ccc4c(c3)OCO4)nc3ccccc23)c(C)n1`, with 818 s.
Then `CCOC(=O)c1nc(Nc2ccc(OC(C)C)cc2)c2ccccc2n1`, with 888 s.
In turn, `COc1ccc(C(C)NC(=O)c2ccc3ncnc(N4CCCC4)c3c2)cc1` (stereo not given) gave an RP-LC retention time of 646 s.
Turning to `Cc1ccc(NC(=O)N2CCN(c3cnn4cnnc4c3)CC2)cc1`, the RP-LC retention time was 627 s.
The molecule `Cc1cnc(C2CCC2)n1CCNS(=O)(=O)c1ccccc1` came in with an RP-LC retention time of 615 s.
In turn, `CC(=O)Nc1ccc(-c2noc(C3CCN(C(=O)c4ccc5cc[nH]c5c4)CC3)n2)cc1` registered an RP-LC retention time of 737 s.
In the case of `Cn1c(N2CCN(C(=O)c3ccc4c(c3)OCO4)CC2)cc(=O)n(C)c1=O`, the RP-LC retention time is 637 s.
On to `O=C(CSc1ccc2nnc(-c3cccnc3)n2n1)NC1CCCCC1`, for which the RP-LC retention time was 592 s.
Then `Cc1nc(C)c(C(=O)Nc2nc(-c3ccc(F)cc3)c(C)s2)s1`, with 956 s; and `COc1ccc(-c2ncc3c(n2)CCN(C(=O)c2cc(F)ccc2Cl)C3)cc1`, with 966 s.
Molecule `Nc1nc(-c2ccc(Cl)cc2)nn1C(=O)C1CC1` yielded an RP-LC retention time of 945 s.
Molecule `COC(=O)c1ncn2c1C(=O)N(c1cccc(C)c1C)C(C)(C(=O)NCc1ccccc1)C2` (stereo not given) came in with an RP-LC retention time of 708 s.
Then `COc1cccc(-c2csc(-c3nnn(-c4ccccc4)c3N)n2)c1`, with 1040 s.
`COc1ccccc1NC(=O)c1cn(CC2CCCO2)cc2c(=O)n(-c3ccccc3)nc1-2` (stereo not given) came in with an RP-LC retention time of 983 s.
Then `CCCc1ccc(S(=O)(=O)NC2CCN(c3ccc(=O)n(CC4CC4)n3)CC2)cc1`, with 972 s.
Molecule `O=C(c1ccsc1)N1CCC(c2nncn2Cc2ccccc2)CC1` gave an RP-LC retention time of 663 s.
In the case of `Cc1cc(C(=O)NCC23CCCC=C2N(CC2CC2)C(=O)CC3)n(C)n1` (stereo not given), the RP-LC retention time was determined as 800 s.
As to `CCCS(=O)(=O)N1CC2(CCCCC2)CC1COCc1ccccc1` (stereo not given), the RP-LC retention time came out at 1260 s.
The result for `Cc1ccc(-n2nc(CO)c(C(=O)NC3CCCC3)n2)cc1C` reads 1090 s; that for `C=CCN1C(=O)COc2ccc(-c3csc(NC(C)=O)n3)cc21`, 762 s; that for `O=C1C(OC2CCN(S(=O)(=O)c3ccc(C(F)(F)F)cc3)CC2)CCN1CC1CC1` (stereo not given), 925 s.
Molecule `CC(C)(C)c1ccc(C(=O)N(Cc2ccc(Br)o2)C2CCS(=O)(=O)C2)cc1` (stereo not given) showed an RP-LC retention time of 1110 s.
Then `CN1C(=O)[C@H]2CN(Cc3ccc(C#N)cc3)C[C@H]2C1=O`, with 574 s; and `COc1ccccc1CNC(=O)c1ccc2ncnc(N3CCCC3)c2c1`, with 640 s.
`O=C(Nc1ccccc1Cl)N1CCC(N2CCN(Cc3cccc(F)c3)C(=O)C2=O)CC1` had an RP-LC retention time of 749 s.
The result for `Cc1ccc(NC(=O)NC2CCN(c3ccccc3)C2=O)cc1Cl` (stereo not given) reads 915 s; that for `CC(C)C(=O)N1CCCC(c2nc(CCNC(=O)C3CCC3)cs2)C1` (stereo not given), 694 s.
`c1csc(-c2nc(-c3ccc4c(c3)ncn4CCN3CCCC3)no2)c1` had an RP-LC retention time of 614 s.
With `O=C(NCCc1ccccc1)N1CCN(c2cc(-c3ccncc3)[nH]n2)CC1`, the RP-LC retention time is 607 s.
Then `O=C(Nc1c(-c2ccc(F)cc2)nc2ccccn12)c1ccc2c(c1)OCO2`, with 651 s.
`Clc1ccc(Nc2c(-c3cccc(Cl)c3)nc3ccc(Cl)cn23)cc1`: the RP-LC retention time came out at 1140 s.
In turn, `c1ccc2c(c1)CCN(c1ncnc3c1CCC3)C2` gave an RP-LC retention time of 650 s.
`CCN1C(=O)c2ccccc2Oc2ccc(C(=O)NCc3cc(OC)ccc3OC)cc21`: the RP-LC retention time stood at 932 s.
Turning to `CCOC(=O)C1CCCN(c2c(N3CCC(Cc4ccccc4)CC3)c(=O)c2=O)C1` (stereo not given), the RP-LC retention time amounted to 986 s.
On to `CCN(CCN(C)C)c1ccc(NS(=O)(=O)c2ccccc2)cc1C(=O)O`, for which the RP-LC retention time was 582 s.
The molecule `COc1ccc(-c2cc(C(=O)N3CCN(S(=O)(=O)c4ccc(C(C)(C)C)cc4)CC3)[nH]n2)cc1` came in with an RP-LC retention time of 1030 s.
The result for `CCc1ccccc1NS(=O)(=O)c1cc(-c2[nH]ncc2C(=O)N2CCOCC2)oc1C` reads 721 s; that for `Cc1ccc(NS(=O)(=O)c2cc3n(c2)CCN(C)C3=O)cc1`, 700 s.
As for `Cc1nn(CC(=O)N2CCN(c3ccc(Cl)cc3)CC2)c(=O)c2nc(C(C)C)sc12`, the RP-LC retention time came out at 921 s.
With `CCOc1ccccc1NC(=O)Cn1c(CC)nc2c(c1=O)CN(Cc1ccccc1)CC2`, the RP-LC retention time is 687 s.
Then `CC1(C(=O)NCc2ccccc2)Cn2cnc(C(=O)NCc3ccccc3F)c2C(=O)N1C1CC1` (stereo not given), with 783 s.
Consider `O=C(Nc1ccc(NC(=O)N2CCC(C(=O)NCC3CC3)CC2)cc1)NC1CCCC1`, for which the RP-LC retention time came to 679 s.
Turning to `Cc1ccc(/C=C/S(=O)(=O)N2CCN(c3ccc(-c4cccs4)nn3)CC2)cc1`, the RP-LC retention time is 929 s.
Then `COc1ccc(NC(=O)Cn2c(N)nc(C)c(C)c2=O)cc1`, with 595 s.
With `Cc1cccc(-c2noc(C3CCCN3S(=O)(=O)c3cc(C)ccc3C)n2)c1` (stereo not given), the RP-LC retention time stood at 1260 s.
Then `CCN1C(=O)C2(CCN(S(=O)(=O)c3ccc4c(c3)CCCC4)CC2)c2ccccc21`, with 1220 s.
In turn, `O=C(NC1CCCC1)c1ccc2c(c1)CCN2C(=O)C1CC1` registered an RP-LC retention time of 751 s.
Then `CCCCn1nc2ccc(S(=O)(=O)N3CCSCC3)cn2c1=O`, with 847 s.
As for `Cc1cnn(Cc2c(C(=O)N3CCc4nn(C)c(=O)n4CC3)noc2C)c1`, the RP-LC retention time was 602 s.
`COC(=O)c1sc2ncccc2c1NC(=O)c1cccc(C)c1`: the RP-LC retention time worked out at 972 s.
The result for `Cc1cc(C)cc(NC(=O)C2CCN(S(=O)(=O)c3ccc4c(c3)NC(=O)C(C)O4)CC2)c1` (stereo not given) reads 903 s; that for `COc1cccc(CN2CC=C(C(=O)N3CCN(c4ccccc4OC)CC3)CC2)c1`, 651 s.
`O=C(Nc1ccccc1F)N1CCCC1c1nc(-c2ccc(F)cc2F)no1` (stereo not given) had an RP-LC retention time of 937 s.
In turn, `Cc1ccc(-c2cc(C(=O)NC3CCC(C)CC3)c(C)[nH]2)cc1` (stereo not given) returned an RP-LC retention time of 1050 s.
Molecule `CCc1cccc(NC(=O)Cn2cc(C(=O)N3CCCC3)c(=O)c3ccc(C)nc32)c1` registered an RP-LC retention time of 753 s.
`Cc1[nH]c(C(=O)N2CCC(CC(=O)NCc3ccc(F)cc3)CC2)c(C)c1C(=O)OC(C)C`: the RP-LC retention time was 818 s.
As for `Cc1cc2[nH]c(C(=O)Nc3ccc(F)c(F)c3F)c(CN(C)C)c2s1`, the RP-LC retention time worked out at 688 s.
The result for `COc1cc(OC)cc(-c2nc(-c3nnn(-c4ccccc4)c3C)no2)c1` reads 1070 s; that for `CN(C)CCNC(=O)CCc1cc2ccccc2[nH]c1=O`, 569 s; that for `Cc1nc(C(=O)NCc2ccc(F)cc2Cl)c(C)o1`, 874 s.
`COc1ccc(CNC(=O)C2CCCN(c3nccnc3Sc3ccccc3)C2)cc1OC` (stereo not given) showed an RP-LC retention time of 1120 s.
Then `COc1ccc(C(=O)N2CCCn3cc(-c4ccccc4)nc32)cn1`, with 532 s; and `CCOc1nc2c(c(C)nn2-c2cccc(C)c2)c(C)c1CCC(=O)NCCc1c[nH]c2ccccc12`, with 1260 s; and `COc1ccccc1NC(=O)C(C)C1CCN(C(=O)Nc2ccc(Cl)cc2)CC1` (stereo not given), with 938 s.
